According to the supplement of paper PMC10307832:

Key:
Assay in all cases: relative viability (nuclei count vs DMSO), 5 days (fraction); higher = more cells survive
ChaGo-K-1 = tested on: ChaGo-K-1
Summary of the method: (§1)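 Relative viability divides the nuclei count in treated wells by that in vehicle wells. Lung cancer cell lines were seeded in 1536-well plates, dosed by pin tool the next day, and fixed and stained after 5 days in one step with final 0.05% Triton X-100, 1% formaldehyde and 1 ug/ml Hoechst. Dosing was a single drug or a fixed anchor-drug dose plus five library-drug doses (not always all listed) in √10 steps, and values are medians of duplicate plates imaged at 4×.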

NCI-H520 = tested on: NCI-H520
Summary of the method: as §1

COR-L 105 = tested on: COR-L 105
Summary of the method: as §1

NCI-H23 = tested on: NCI-H23
Summary of the method: as §1

NCI-H650 = tested on: NCI-H650
Summary of the method: as §1

H3255 = tested on: H3255
Summary of the method: as §1

NCI-H1915 = tested on: NCI-H1915
Summary of the method: as §1

NCI-H647 = tested on: NCI-H647
Summary of the method: as §1

NCI-H2347 = tested on: NCI-H2347
Summary of the method: as §1

NCI-H661 = tested on: NCI-H661
Summary of the method: as §1

LC-2-ad = tested on: LC-2-ad
Summary of the method: as §1

`Nc1ccn([C@@H]2O[C@H](CO)[C@@H](O)[C@@H]2O)c(=O)n1` [Cytarabine] + C[C@@H](Oc1cc(-c2cnn(C3CCNCC3)c2)cnc1N)c1c(Cl)ccc(F)c1Cl [Crizotinib] (partner 1 µM) showed a relative viability (ChaGo-K-1; first compound 0.005 µM) of 0.732, a relative viability (ChaGo-K-1; first compound 0.01581 µM) of 0.717 and a relative viability (ChaGo-K-1; first compound 0.05 µM) of 0.521. For the same compound, the relative viability (ChaGo-K-1; first compound 0.1581 µM) was 0.383, the relative viability (ChaGo-K-1; first compound 0.5 µM) was 0.358 and the relative viability (NCI-H520; first compound 0.005 µM) was 0.56. The relative viability (NCI-H520; first compound 0.01581 µM) was 0.758, the relative viability (NCI-H520; first compound 0.05 µM) was 0.831 and the relative viability (NCI-H520; first compound 0.1581 µM) was 0.56. It also gave a relative viability (NCI-H520; first compound 0.5 µM) of 0.469, a relative viability (COR-L 105; first compound 0.005 µM) of 0.657 and a relative viability (COR-L 105; first compound 0.01581 µM) of 0.725. The relative viability (COR-L 105; first compound 0.05 µM) was 0.511, the relative viability (COR-L 105; first compound 0.1581 µM) was 0.393 and the relative viability (COR-L 105; first compound 0.5 µM) was 0.256. The relative viability (NCI-H23; first compound 0.005 µM) was 0.458, the relative viability (NCI-H23; first compound 0.01581 µM) was 0.369 and the relative viability (NCI-H23; first compound 0.05 µM) was 0.311. It also gave a relative viability (NCI-H23; first compound 0.1581 µM) of 0.226, a relative viability (NCI-H23; first compound 0.5 µM) of 0.209 and a relative viability (NCI-H650; first compound 0.005 µM) of 0.664. It also gave a relative viability (NCI-H650; first compound 0.01581 µM) of 0.519, a relative viability (NCI-H650; first compound 0.05 µM) of 0.353 and a relative viability (NCI-H650; first compound 0.1581 µM) of 0.259. It also gave a relative viability (NCI-H650; first compound 0.5 µM) of 0.177, a relative viability (H3255; first compound 0.005 µM) of 0.76 and a relative viability (H3255; first compound 0.01581 µM) of 0.828. It also gave a relative viability (H3255; first compound 0.05 µM) of 0.776, a relative viability (H3255; first compound 0.1581 µM) of 0.724 and a relative viability (H3255; first compound 0.5 µM) of 0.667. For the same compound, the relative viability (NCI-H1915; first compound 0.005 µM) was 0.888, the relative viability (NCI-H1915; first compound 0.01581 µM) was 0.882 and the relative viability (NCI-H1915; first compound 0.05 µM) was 0.686. It also gave a relative viability (NCI-H1915; first compound 0.1581 µM) of 0.393, a relative viability (NCI-H1915; first compound 0.5 µM) of 0.333 and a relative viability (NCI-H647; first compound 0.005 µM) of 0.613. The relative viability (NCI-H647; first compound 0.01581 µM) was 0.518, the relative viability (NCI-H647; first compound 0.05 µM) was 0.243 and the relative viability (NCI-H647; first compound 0.1581 µM) was 0.11. It also gave a relative viability (NCI-H647; first compound 0.5 µM) of 0.116, a relative viability (NCI-H2347; first compound 0.005 µM) of 0.827 and a relative viability (NCI-H2347; first compound 0.01581 µM) of 0.719. It also gave a relative viability (NCI-H2347; first compound 0.05 µM) of 0.573, a relative viability (NCI-H2347; first compound 0.1581 µM) of 0.642 and a relative viability (NCI-H2347; first compound 0.5 µM) of 0.467. For the same compound, the relative viability (NCI-H661; first compound 0.005 µM) was 0.963, the relative viability (NCI-H661; first compound 0.01581 µM) was 1.15 and the relative viability (NCI-H661; first compound 0.1581 µM) was 0.975. It also gave a relative viability (NCI-H661; first compound 0.5 µM) of 0.632, a relative viability (LC-2-ad; first compound 0.005 µM) of 0.416 and a relative viability (LC-2-ad; first compound 0.01581 µM) of 0.544. The relative viability (LC-2-ad; first compound 0.05 µM) was 0.453, the relative viability (LC-2-ad; first compound 0.1581 µM) was 0.341 and the relative viability (LC-2-ad; first compound 0.5 µM) was 0.295.
